Reference: article PMC8162404, “Proteomimetic surface fragments distinguish targets by function” (Chemical Science, 2020)
Read-outs that look alike come from different tables or passages of the source.

Key:
Gal-1 [1] = target: Gal-1; set-up: method as in PMID 15476813; conditions: native ligand used as competitor; cited from earlier work
S100B [2] = target: T1, S100B (Homo sapiens, UniProt P04271); set-up: method as in PMID 26527685; conditions: native ligand used as competitor; cited from earlier work
T1 construct: made in house; host or cells: Escherichia coli BL21(DE3)
T1 sequence (P04271 1-92): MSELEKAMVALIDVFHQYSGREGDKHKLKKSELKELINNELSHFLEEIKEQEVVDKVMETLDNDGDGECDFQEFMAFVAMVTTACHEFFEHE

S100A4 [3] = target: T2, S100A4 (Homo sapiens, UniProt P26447); set-up: method as in PMID 26527685; conditions: native ligand used as competitor; cited from earlier work
T2 construct: made in house; host or cells: Escherichia coli BL21(DE3)
T2 sequence (P26447 whole entry): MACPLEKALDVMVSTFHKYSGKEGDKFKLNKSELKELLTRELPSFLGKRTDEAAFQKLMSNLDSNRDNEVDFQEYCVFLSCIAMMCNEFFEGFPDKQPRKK

RecQ-WH [4] = target: T3, RecQ-WH (Escherichia coli, UniProt P15043); assay: Competition pull-down with native ligand SSB-Ct8; type: binding, E. coli; conditions: H14 library; competitor peptide 200 µM; read-out: Surface mapping KD (apparent), competition
T3 construct: coding for residues 408– 523 of E. coli RecQ; made in house; host or cells: E. coli BL21(DE3)
T3 sequence (P15043 408-523): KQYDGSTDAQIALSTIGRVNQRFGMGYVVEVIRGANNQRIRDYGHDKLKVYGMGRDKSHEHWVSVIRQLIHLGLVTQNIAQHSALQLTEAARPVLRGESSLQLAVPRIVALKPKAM

RecQ-WH [5] = target: T3, RecQ-WH; assay: Pull-down assay with immobilized protein and LSM libraries; set-up: species or system E. coli; conditions: H14 library; 1:1 binding assumed; read-out: Surface mapping KD (apparent)
Procedure, shortened: (§1)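 His-tagged protein immobilized on Co-NTA resin (64 µM) in 20 mM HEPES pH 7.4, 150 mM NaCl, equilibrated 30 min at room temperature with foldamer LSM sublibraries at equimolar total concentration. Unbound fractions quantified by HPLC-MS versus protein-free resin control; apparent KD assumes 1:1 binding.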

S100A4 [6] = target: T2, S100A4; assay: Competition pull-down with native ligand NMIIA (1893–1923); type: binding; conditions: H14 library; competitor peptide 200 µM; read-out: Surface mapping KD (apparent), competition
Gal-1 [7] = target: T4, Gal-1 (Homo sapiens, UniProt P09382); assay: Competition pull-down with lactose; type: binding; conditions: H14 library; lactose 10 mM; read-out: Surface mapping KD (apparent), competition
T4 construct: made in house; host or cells: E. coli BL21(DE3)
T4 sequence (P09382 whole entry): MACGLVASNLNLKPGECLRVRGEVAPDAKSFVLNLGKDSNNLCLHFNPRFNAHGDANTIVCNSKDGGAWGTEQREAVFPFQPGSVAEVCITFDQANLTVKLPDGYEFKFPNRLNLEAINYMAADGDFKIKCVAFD
Procedure, shortened: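 His6-tagged proteins immobilized on Co-NTA resin at 64 µM final with 64-member LSM foldamer sublibraries (1 M each, as printed) in pH 7.4 HEPES/NaCl buffers (Ca2+/TCEP per target), 30 min RT; competitor peptides 200 µM final, lactose 10 mM for Gal-1. Bound fractions from LC-MS loss vs protein-free resin; KD assuming 1:1 binding.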

S100A4 [8] = target: T2, S100A4; assay: Pull-down assay with immobilized protein and LSM libraries; type: binding; conditions: for Kd: H14 library, 1:1 binding assumed, read-out: Surface mapping KD (apparent); for Affinity class of probe (high, medium, low) in pull-down: H14 probes selected for validation
Procedure, shortened: (§2)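 Buffers were HEPES pH 7.4 with 150 mM NaCl, plus 1 mM TCEP and 1 mM CaCl2 (50 mM HEPES) for S100A4 and S100B, 1 mM TCEP for Gal-1, and no additive for RecQ-WH. Immobilized protein at 64 µM was equilibrated 30 min with the LSM sublibrary, and unbound probes were measured by LC-MS.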

Gal-1 [9] = target: T4, Gal-1; assay: as above; type: binding; conditions: H14 library; 1:1 binding assumed; read-out: Surface mapping KD (apparent)
Procedure, shortened: as §1

S100B [10] = target: T1, S100B; assay: as above; type: binding; conditions: for Kd: H14 library, 1:1 binding assumed, read-out: Surface mapping KD (apparent); for Affinity class of probe (high, medium, low) in pull-down: H14 probes selected for validation
Procedure, shortened: as §2

CaM [11] = target: T5, CaM (Bos taurus, UniProt P62157); assay: Competition pull-down with native ligand TRPV1-Ct15; type: binding, bovine; conditions: H14 library; competitor peptide 200 µM; read-out: Surface mapping KD (apparent), competition
T5 construct: made in house; host or cells: E. coli BL21 (DE3)

S100B [12] = target: T1, S100B; assay: Competition pull-down with native ligand RSK1 (689–735); type: binding; conditions: H14 library; competitor peptide 200 µM; read-out: Surface mapping KD (apparent), competition
CaM [13] = target: T5, CaM; assay: Pull-down assay with immobilized protein and LSM libraries; type: binding, bovine; conditions: H14 library; 1:2 stoichiometry assumed; read-out: Surface mapping KD (apparent)
Procedure, shortened: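 His-tagged protein immobilized on Co-NTA resin, equilibrated 30 min at room temperature with LSM sublibraries (64 members, […]), equimolar protein to total probe. CaM buffer: 20 mM HEPES pH 7.4, 150 mM NaCl, 5 mM CaCl2. Bound fractions from HPLC-MS loss of unbound probe versus protein-free resin control; Kd derived.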

Compound	Kd (Gal-1 [1]) [µM]	Kd (S100B [2]) [µM]	Kd (S100A4 [3]) [µM]	Kd (RecQ-WH [4]) [µM]	Kd (RecQ-WH [5]) [µM]	Kd (S100A4 [6]) [µM]	Kd (Gal-1 [7]) [µM]	Kd (S100A4 [8]) [µM]	Kd (Gal-1 [9]) [µM]	Kd (S100B [10]) [µM]	Kd (CaM [11]) [µM]	Kd (S100B [12]) [µM]	Kd (CaM [13]) [µM]	Affinity class of probe (high, medium, low) in pull-down (S100A4 [8])	Affinity class of probe (high, medium, low) in pull-down (S100B [10])
OC[C@H]1O[C@@H](O[C@H]2[C@H](O)[C@@H](O)C(O)O[C@@H]2CO)[C@H](O)[C@@H](O)[C@H]1O (mixture of isomers) [Lactose]	409														
RSK1 (689–735): peptide motif of ribosomal S6 kinase 1, native ligand competitor for S100B (QDLQLVKGAMAATYSALNSSKPTPQLKPIESSILAQRRVRKLPSTTL; UniProt Q15418 689-735, looked up, fragment)		1.8													
NMIIA (1893–1923): peptide motif of non-muscle myosin IIA, native ligand competitor for S100A4			0.007 ± 0.001												
NC(=O)[C@H]1CCCC[C@@H]1NC(=O)C[C@H](Cc1c[nH]c2ccccc12)NC(=O)[C@H]1CCCC[C@@H]1NC(=O)[C@H]1CCCC[C@@H]1NC(=O)C[C@H](Cc1ccc(O)cc1)NC(=O)[C@H]1CCCC[C@@H]1N [H14 YW]				164	46	391	112	25	115	42	404	38	2		
CC[C@H](C)[C@@H](CC(=O)N[C@H]1CCCC[C@@H]1C(=O)N[C@H]1CCCC[C@@H]1C(=O)N[C@H](CC(=O)N[C@H]1CCCC[C@@H]1C(N)=O)CC(C)C)NC(=O)[C@H]1CCCC[C@@H]1N [H14 IL]				266	206	101	50	2	24	19	276	147	9	high	high
NC(=O)[C@H]1CCCC[C@@H]1NC(=O)C[C@H](Cc1c[nH]c2ccccc12)NC(=O)[C@H]1CCCC[C@@H]1NC(=O)[C@H]1CCCC[C@@H]1NC(=O)C[C@H](Cc1c[nH]c2ccccc12)NC(=O)[C@H]1CCCC[C@@H]1N [H14 WW]				84	40	462	51	23	30	19	35	138	1.2	medium	high
CC[C@H](C)[C@@H](CC(=O)N[C@H]1CCCC[C@@H]1C(N)=O)NC(=O)[C@H]1CCCC[C@@H]1NC(=O)[C@H]1CCCC[C@@H]1NC(=O)C[C@H](Cc1c[nH]c2ccccc12)NC(=O)[C@H]1CCCC[C@@H]1N [H14 WI]				142	68	255	105	10	71	12	55	123	1		
CC[C@H](C)[C@@H](CC(=O)N[C@H]1CCCC[C@@H]1C(N)=O)NC(=O)[C@H]1CCCC[C@@H]1NC(=O)[C@H]1CCCC[C@@H]1NC(=O)C[C@H](Cc1ccccc1)NC(=O)[C@H]1CCCC[C@@H]1N [H14 FI]				266	79	280	164	9	102	21	121	202	0.6		
